“And” between values parts separate entries of the source, which are not always exact repeats. Equal entries are not always repeated.
Tests used:
U87-EGFRvIII cells = experiment: Proliferation/viability of cultured tumor cells, U87-EGFRvIII; assay type: cell-based, human; settings: 10 μM D-Prop, 1 μM Des, alone or combined, 4 days
Protocol: (§1) HeLa cells used for the radioligand binding assays and immunofluorescence to study EGFR endocytosis have been characterized previously in our laboratory (64, 122, 152). The cells were grown to approximately 80% confluence and maintained without serum for 4 h before testing. U87 human […] cells from the ATCC were grown and transfected with pcDNA3.1-EGFRvIII-myc using the lipofectamine method following the manufacturer's instructions (Invitrogen). 100,000 U87 cells were seeded in 15 mm plated and after 48 hours of seeding cells were transfected with 1 μg of plasmid pcDNA3-EGFRvIII-myc. After 48 hours post-transfection the selection medium (DMEM, 10% Fetal Bovine Serum (FBS) supplemented with antibiotics (100 IU/ml penicillin, […] streptomycin) and 0.8 mg/ml Geneticin was added (G418, Sigma). After 2 weeks in selection media, permanently transfected cells were obtained (U87-EGFRvIII).
(§2) Cells were seeded at a density of 10.000 cells per well in 24-well plates in triplicate and cultured in DMEM supplemented with 10% FBS and antibiotics (penicillin 100 U/ml and streptomycin 100 mg/ml). The medium with the drugs was changed each 24 hours. […] Viable cells were counted after 4 days of treatment in an automatic cell counter (Countess, Invitrogen) after incubation with vital tripan blue dye and are represented as % of live cells respect to untreated controls.

U87 cells = experiment: Proliferation/viability of cultured tumor cells, U87; assay type: cell-based, human; settings: 10 μM D-Prop, 1 μM Des, alone or combined, 4 days
Protocol: as §1, §2

MDCK cells = experiment: Proliferation/viability, non-tumoral MDCK cells (selectivity control); assay type: cell-based, canine; settings: 10 or 30 μM D-Prop, 1 μM Des, alone or combined, 4 days
Protocol: (§3) Viable cells counted in an automatic cell counter after incubation with vital tripan blue dye are represented as % of live cells respect to untreated controls.
(§4) Cells were seeded at a density of 10.000 cells per well in 24-well plates in triplicate and cultured in DMEM supplemented with 10% FBS and antibiotics (penicillin 100 U/ml and streptomycin 100 mg/ml). The medium with the drugs was changed each 24 hours. The respective controls received only culture medium. Viable cells were counted after 4 days of treatment in an automatic cell counter (Countess, Invitrogen) after incubation with vital tripan blue dye and are represented as % of live cells respect to untreated controls.

GBM1 cells = experiment: Proliferation/viability of primary glioblastoma cells GBM1; assay type: cell-based, human; settings: 10 μM D-Prop, 1 μM Des, alone or combined, 4 days
Protocol: as §4

UCI 101 cells = experiment: Proliferation/viability, ovarian cancer cells UCI 101; assay type: cell-based, human; settings: 10 or 30 μM D-Prop, 1 μM Des, alone or combined, 4 days
Protocol: as §3, §4

B16F10 cells = experiment: Proliferation/viability, melanoma cells B16F10; assay type: cell-based, mice; settings: 10 or 30 μM D-Prop, 1 μM Des, alone or combined, 4 days
Protocol: as §3, §4

[1] = cited from earlier work
EGFR at the cell surface [2] = experiment: 125I-EGF radioligand binding assay on HeLa cells (EGFR at the cell surface); assay type: cell-based, human; settings: for decrease of EGFR at the cell surface (125I-EGF binding): 30 min, HeLa
Protocol: as §1
The radioligand ^125I-human EGF was prepared by the chloramine T method as described (122, 152, 160) yielding specific activities of 50000-70000 cpm/ng. Binding assays were performed in Hanks solution with 20 mM HEPES and 0.2% bovine serum albumin (BSA) for 1 h at 4° C., as described (122). HeLa cells deprived of serum for 4 h were treated for 30 min with the indicated doses of various drugs and then incubated with 20 ng/ml ^125I-EGF at 4° C. in binding medium (MEM-Hank's, 25 mM HEPES, 0.2% BSA RIA grade), stirring for 1 h. The cells were lysed with 1 N NaOH for 2 h at room temperature and the counts per minute of each sample in triplicate was determined in a gamma counter, including a nonspecific binding point obtained by incubation with an excess (500 fold) of cold ligand, whose value was subtracted from each sample. The radioligand binding in saturating condition provides an estimate of the amount of EGFR on the cell surface.

EGFR = experiment: Indirect immunofluorescence of EGFR distribution in HeLa cells; parameters: EGFR endocytosis (immunofluorescent pattern): dose or concentration left out as unconfirmed; settings: for EGFR staining pattern by indirect immunofluorescence: 30 min, 100 μM D- or L-propranolol, 20 μM desipramine; for EGFR endocytosis (immunofluorescent pattern): […] μM propranolol, […] μM desipramine
Protocol: HeLa cells grown on glass coverslips were washed three times with cold phosphate buffer saline (PBS) and incubated 2 h in serum free DMEM-HEPES media at 37° C., in order to accumulate EGFR on the cell surface. Then the cells were washed with PBS and fixed for 30 min at room temperature with 4% paraformaldehyde in PBS supplemented with 0.1 mM CaCl2 and 1 mM MgCl 2 (PBS-CM). After washing three times with PBS plus 0.2% gelatin (300 Bloom, Sigma Aldrich, PBS-CM-G), 5 minutes each time, cells were permeabilized with 0.2% Triton X-100 for 10 minutes at room temperature and incubated for 12 h at 4° C. with anti-EGFR monoclonal antibody (mAb) HB8506. After at least 6 washes in PBS-CM-G cells were incubated with secondary antibody anti-mouse IgG coupled to Alexa488 (dilution 1/1000) for 30 min at 37° C.

H1975 cells = experiment: Proliferation/viability, NSCLC cells H1975 (EGFR L858R/T790M); assay type: cell-based, human; settings: 10 or 30 μM D-Prop, 1 μM Des, alone or combined, 4 days
Protocol: as §3, §4

EGFR at the cell surface [3] = settings: highest dose 300 μM, 30 min; cited from earlier work

Row | EC50 (EGFR at the cell surface [2]; HeLa cells, serum deprived 4 h, drug 30 min, read-out: EC50 for decrease in 125I-EGF binding (EGFR at the cell surface)) | Compound | proliferation of U87-EGFRvIII cells (U87-EGFRvIII cells) | proliferation of U87 cells (U87 cells) | viable cells (% of live cells respect to untreated controls), MDCK (MDCK cells) | proliferation of GBM1 cells (GBM1 cells) | viable cells (% of live cells respect to untreated controls), UCI 101 (UCI 101 cells) | viable cells (% of live cells respect to untreated controls), B16F10 (B16F10 cells) | concentration in the blood of patients ([1]; patients treated for arrhythmia, 12 h after the last dose (ref. 14)) [µM] | decrease of EGFR at the cell surface (125I-EGF binding) (EGFR at the cell surface [2]; 250 μM) [%] | decrease of EGFR at the cell surface (125I-EGF binding) (EGFR at the cell surface [2]; […] μM) | EGFR staining pattern by indirect immunofluorescence (EGFR) | viable cells (% of live cells respect to untreated controls), H1975 (H1975 cells) | decrease of the levels of EGFR at the cell surface (125I-EGF binding) (EGFR at the cell surface [3]) [%] | half-time of concentration in circulation ([1]; human, in vivo) [h] | EGFR endocytosis (immunofluorescent pattern) (EGFR) | reported effective blood concentration ([1]; human, in vivo) [µM]
1 |  | CC(C)NC[C@@H](O)COc1cccc2ccccc12 [D-propranolol] | decrease their proliferation | not sensitive | not affected | decrease their proliferation | sensitive | sensitive | ~10 | ~80 | about 50% | the pattern changed to an intracellular location, mainly at the perinuclear region | sensitive |  |  |  | 
2 |  | CC(C)NCC(O)COc1cccc2ccccc12 (racemic) [propranolol] |  |  |  |  |  |  |  |  |  |  |  | 80 | 4 to 6 | induce endocytosis of the EGFR | 
3 |  | CC(C)NC[C@H](O)COc1cccc2ccccc12 [L-propranolol] |  |  |  |  |  |  |  | ~80 | about 50% | the pattern changed to an intracellular location, mainly at the perinuclear region |  |  |  |  | 
4 | 20 to 25 µM and ~20 µM | CNCCCN1c2ccccc2CCc2ccccc21 [desipramine] | decrease their proliferation | not sensitive | not affected | decrease their proliferation | sensitive | sensitive |  |  |  | the pattern changed to an intracellular location, mainly at the perinuclear region | sensitive |  |  | induce endocytosis of the EGFR | 1

— patent US9345710B2, “Inhibitors of phosphatidic acid phosphohydrolase (PAP) enzymes for the treatment of cancers that depend on members of the ErbB/HER tyrosine kinase receptor family” (PONTIFICA UNIVERSIDAD CATOLICA DE CHILE, priority 2011, dated 2016)
